Results published in patent US7955816B2, “Design and synthesis of biotinylated probes for N-acyl-ethanolamines” (Universita Degli Studi Di Roma “Tor Vergata”, priority 2006, dated 2011).

Assays:
[1] = test system: AEA membrane transporter (AMT); test: AMT assay in HaCaT cells: uptake of the radiolabelled compound as substrate; format: cell-based, human; conditions: intact HaCaT cells
Procedure: (§1) HaCaT cells [Maccarrone et al., 2003], were cultured in Dulbecco's minimal essential supplemented with 10% fetal calf serum and 100 units/mL streptomycin/penicillin at 37° C. in a 5% CO2 humidified atmosphere. Cells were split twice a week at 1:5 ratio using 0.05% trypsin (w/v), 0.02% EDTA (w/v) in phosphate-buffered saline (PBS). These cells were grown in six-well plates (2×10^6 cells/well) and were incubated for 10 min at 37° C. with [^3H]AEA (Perkin-Elmer Life Sciences, Inc.; Boston, Mass.) or [^3H]b-AEA, and were washed three times with cold PBS containing 1% bovine serum albumin. To discriminate noncarrier-mediated from carrier-mediated transport of AEA, control experiments were carried out at 4° C. and the values subtracted from those at 37° C. Then, the cells were solubilized in 1 ml of 0.1 M NaOH and neutralized (50 μl of concentrated HCl), and radioactivity was determined by liquid scintillation counting. Incubations were also carried out with different concentrations of [^3H]AEA or [^3H]b-AEA, as indicated in the figures, to determine the apparent Michaelis-Menten constant (Km) and maximum velocity (Vmax). The effect of different compounds on AEA or b-AEA uptake was determined by adding each substance directly to the incubation medium, at different concentrations. The results are shown in FIG. 2A, Table 1 and Table 2.

[2] = molecular target: T1, CB1R (Mus musculus, UniProt P47746); test: [3H]CP55.940 binding in mouse brain membrane fractions; conditions: mouse brain membranes, read-out: IC50 on CB1 receptors
T1 construct: membrane preparations from mouse brain or mouse spleen were used; from tissue; host or cells: mouse brain membrane fractions

[3] = molecular target: T2, fatty acid amide hydrolase (FAAH) (Homo sapiens, UniProt O00519); test: Inhibition of [3H]AEA hydrolysis by FAAH in HaCaT cell extracts; format: biochemical; conditions: at concentrations up to 10 μM
T2 construct: The reaction was initiated by the addition of HaCaT cell extracts; endogenous in cells; host or cells: HaCaT cell extracts
T2 sequence (O00519 1-579): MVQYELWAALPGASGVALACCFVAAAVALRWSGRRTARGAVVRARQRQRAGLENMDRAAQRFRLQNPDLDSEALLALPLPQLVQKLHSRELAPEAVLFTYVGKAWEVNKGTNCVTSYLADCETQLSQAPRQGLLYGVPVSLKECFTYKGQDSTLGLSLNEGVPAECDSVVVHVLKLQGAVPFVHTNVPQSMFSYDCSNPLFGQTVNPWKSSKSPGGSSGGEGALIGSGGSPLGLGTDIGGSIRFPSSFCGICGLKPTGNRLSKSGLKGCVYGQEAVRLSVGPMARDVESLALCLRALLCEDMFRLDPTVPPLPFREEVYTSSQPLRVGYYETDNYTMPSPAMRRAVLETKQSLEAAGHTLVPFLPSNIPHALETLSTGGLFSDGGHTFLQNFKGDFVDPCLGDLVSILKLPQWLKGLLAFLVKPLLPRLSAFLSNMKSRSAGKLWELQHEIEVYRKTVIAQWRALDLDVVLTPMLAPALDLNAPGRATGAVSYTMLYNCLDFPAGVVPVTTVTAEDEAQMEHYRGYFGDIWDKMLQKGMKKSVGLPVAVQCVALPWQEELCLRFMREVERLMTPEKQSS
Procedure: (§2) The assay of fatty acid amide hydrolase (E.C. 3.5.1.4, arachidonoylethanolamide amidohydrolase; FAAH) was performed by measuring the release of [^3H]AA from [^3H]AEA (68 mCi/mmol) or [^3H]b-AEA (10 mCi/mmol) through reversed phase high performance liquid chromatography (RP-HPLC) and on-line scintillation counting. [^3H]AEA or [^3H]b-AEA was added to hydrolase assay buffer (50 mM Tris.HCl, pH 9.0) at the indicated concentrations. The reaction was initiated by the addition of HaCaT cell extracts, was continued at 37° C. for 15 min, and then was stopped by the addition of methanol/chloroform/water, with vortexing. This mixture was centrifuged at 3000×g for 5 min, the lower organic phase was dried and the pellet was resuspended in 20 μl of methanol and subjected to RP-HPLC analysis for AA quantitation. The separations of [^3H]AEA or [^3H]b-AEA from [^3H]AA were carried out on a C18 (5 μm, 3.0×150 mm) column, with a mobile phase of methanol-water-acetic acid (85:15:0.1, v/v/v), at a flow rate of 0.8 ml/min. The amount [^3H]AA formed were calculated from the corresponding peak areas. The effect of different concentrations of b-AEA on [^3H]AEA hydrolysis was ascertained by adding the “cold” compound directly to the assay buffer. FAAH activity was expressed as pmol [^3H]AA released from [^3H]AEA per min per mg protein. The results are shown in FIG. 2B, Table 1 and Table 2.

[4] = test system: HaCaT cells; test: HaCaT cell differentiation (cornified envelope formation); format: cell-based, human; parameters: dose or concentration left out as unconfirmed; conditions: 5 days, FIG. 4
Procedure: Cell differentiation was induced by treating HaCaT cells with 12-O-tetradecanoylphorbol 13-acetate (TPA; 10 ng/ml) plus calcium chloride (CaCl2; 1.2 mM) for 5 days, as reported [Maccarrone et al., 2003]. AEA and b-AEA (or vehicle in the controls) were added directly to the culture medium at the same time as TPA plus calcium. Cornified envelope (CE), a hallmark of keratinocyte differentiation, was extracted from HaCaT cells (5×10^6/test) by exhaustive boiling and sonication in 2% SDS, 20 mM dithiothreitol, 0.1 M Tris-HCl pH 8.0, and 0.5 mM EDTA. CEs were then purified on Ficoll gradients and recovered as sonicated fragments, free of soluble keratin/filaggrin proteins, after pelleting through Ficoll as previously described [Maccarrone et al., 2003]. CE formation was quantified by spectrophotometry at 600 nm and was normalized to the protein content.

[5] = molecular target: T3, CB2R (Mus musculus, UniProt P47936); test: [3H]CP55.940 binding in mouse spleen membrane fractions; conditions: mouse spleen membranes, read-out: IC50 on CB2 receptors
T3 construct: membrane preparations from mouse brain or mouse spleen were used; from tissue; host or cells: mouse spleen membrane fractions

[6] = test system: HaCaT cells; test: Fluorescence microscopy of b-AEA transport in HaCaT cells; format: cell-based, human
Procedure: HaCaT cells were plated at a density of 6×10^4 cells/ml on collagen-coated (0.5 mg/ml; Sigma, St. Louis, Mo.) glass coverslips (12 mm). Twenty-four hours after plating, cultures were either left untreated (by adding […] biotin EZ-Link Biotin-PEO-Amine, as negative control) or incubated with […] b-AEA for 10 min at 37° C. in a 5% CO2 humidified atmosphere. […] All steps of the immunofluorescence procedure were performed at room temperature. Cells were washed, fixed with 3% paraformaldehyde (Sigma) for 20 min, and then permeabilized with 0.1% Triton X-100 in PBS for 15 min. After a blocking step in Image-iT™ FX signal enhancer (Molecular Probes, Eugene, Oreg.) for 30 min, cells were incubated for 1 h with anti-biotin primary antibody (Molecular Probes, Eugene, Oreg.), diluted 1:50 in Image-iT™ FX signal enhancer. […] N-Piperidino-5-(4-chlorophenyl)-1-(2,4-dichloro-phenyl)-4-methyl-3-pyrazole carboxamide (SR141716), and N-[1(S)-endo-1,3,3-trimethyl-bicyclo[2.2.1]heptan-2-yl]-5-(4-chloro-3-methylphenyl)-1-(4-methyl-benzyl)-pyrazole-3-carboxa-mide (SR144528) were kind gifts from Sanofi-Aventis Recherche (Montpellier, France). OMDM-1 was a kind gift from Dr. S. Marinelli (Experimental Neurology, IRCCS Fondazione Santa Lucia, Rome, Italy).

[7] = molecular target: T4, TRPV1 (Rattus norvegicus, UniProt O35433); test: [3H]RTX binding in C6 cells membrane fractions; conditions: competition with [3H]RTX; read-out: IC50 on TRPV1 receptors
T4 construct: membrane fractions isolated from rat neuroblastoma C6 cells were used; endogenous in cells; host or cells: rat C6 cells, membrane fractions

[8] = test system: AEA membrane transporter (AMT); test: Inhibition of [3H]AEA uptake by AMT in intact HaCaT cells; format: cell-based, human; conditions: 0.5 μM [3H]AEA, read-out: IC50 for reduction of AEA uptake by AMT
Procedure: as §1

[9] = molecular target: T5, CB1R (Homo sapiens, UniProt P21554); format: binding; conditions: HaCaT membranes, FIG. 2C
T5 construct: endogenous in cells; host or cells: HaCaT cell membrane fractions

[10] = molecular target: T2, fatty acid amide hydrolase (FAAH); test: FAAH activity in HaCaT cell extracts, compound as substrate; format: biochemical; conditions: for hydrolysis by FAAH (substrate or not): FIG. 2B
Procedure: as §2

[11] = molecular target: T6, NAPE-PLD (Homo sapiens, UniProt Q6IQ20); test: NAPE-PLD activity in HaCaT cell extracts; format: biochemical; conditions: at concentrations up to 10 μM
T6 construct: endogenous in cells; host or cells: HaCaT cell extracts
Procedure: HaCaT cell extracts (100 μg/test) were incubated at 37° C. for 30 min with a clear mixture of [^3H]NArPE (ARC; St. Louis, Mo.) and NArPE (“cold” NArPE was synthesized from AA and phosphatidylethanolamine) at a final specific activity of 6.8 nCi/nmol, in 200 μl of 50 mM Tris-HCl, pH 7.4, containing 0.1% Triton X-100. A mixture of chloroform/methanol (2:1, v/v; 600 μl) was added to stop the reaction. Then, the samples were vortexed and centrifuged at room temperature, and the lower organic phase was dried. The pellet was resuspended in 20 μl of methanol and subjected to RP-HPLC coupled to on-line scintillation counting. The separations were carried out on a C18 (5 μm, 3.0×150 mm) column with a mobile phase of methanol-water-acetic acid (85:15:0.1, v/v/v), at a flow rate of 0.8 ml/min. The amount of [^3H]AEA formed was calculated from the corresponding peak areas. The identity of the peaks was assessed also by UV detection of cold standard, recording absorbance at 204 nm. The effect of b-AEA on NAPE-PLD activity was ascertained by adding different concentrations of the biotin-derivative directly to the assay buffer. NAPE-PLD activity was expressed as pmol [^3H]AEA released from [^3H]NArPE per min per mg protein.

[12] = test system: HaCaT cells; conditions: Maccarrone et al., 2003, cited from earlier work

T1 sequence (P47746 whole entry): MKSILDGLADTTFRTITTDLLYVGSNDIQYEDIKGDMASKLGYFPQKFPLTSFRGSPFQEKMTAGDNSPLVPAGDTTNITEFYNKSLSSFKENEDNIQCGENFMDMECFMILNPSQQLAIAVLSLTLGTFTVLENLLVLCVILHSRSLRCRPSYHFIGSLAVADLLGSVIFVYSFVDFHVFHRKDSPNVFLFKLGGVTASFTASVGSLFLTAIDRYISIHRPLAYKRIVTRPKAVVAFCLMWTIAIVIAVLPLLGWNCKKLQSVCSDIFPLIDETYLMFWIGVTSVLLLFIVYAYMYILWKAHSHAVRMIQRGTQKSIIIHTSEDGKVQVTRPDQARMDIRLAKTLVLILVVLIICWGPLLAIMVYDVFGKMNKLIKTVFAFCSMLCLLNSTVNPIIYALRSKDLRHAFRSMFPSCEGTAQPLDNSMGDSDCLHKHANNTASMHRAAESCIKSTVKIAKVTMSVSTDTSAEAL
T3 sequence (P47936 whole entry): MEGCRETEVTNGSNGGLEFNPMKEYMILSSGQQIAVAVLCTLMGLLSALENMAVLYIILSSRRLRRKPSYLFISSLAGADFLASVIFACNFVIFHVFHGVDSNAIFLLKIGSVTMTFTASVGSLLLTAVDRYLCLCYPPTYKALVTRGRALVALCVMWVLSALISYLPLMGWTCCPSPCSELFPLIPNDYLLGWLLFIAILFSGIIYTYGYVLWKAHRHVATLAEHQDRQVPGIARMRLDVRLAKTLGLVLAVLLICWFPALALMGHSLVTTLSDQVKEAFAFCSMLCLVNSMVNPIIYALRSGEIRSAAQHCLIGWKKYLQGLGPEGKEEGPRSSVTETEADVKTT
T6 sequence (Q6IQ20 whole entry): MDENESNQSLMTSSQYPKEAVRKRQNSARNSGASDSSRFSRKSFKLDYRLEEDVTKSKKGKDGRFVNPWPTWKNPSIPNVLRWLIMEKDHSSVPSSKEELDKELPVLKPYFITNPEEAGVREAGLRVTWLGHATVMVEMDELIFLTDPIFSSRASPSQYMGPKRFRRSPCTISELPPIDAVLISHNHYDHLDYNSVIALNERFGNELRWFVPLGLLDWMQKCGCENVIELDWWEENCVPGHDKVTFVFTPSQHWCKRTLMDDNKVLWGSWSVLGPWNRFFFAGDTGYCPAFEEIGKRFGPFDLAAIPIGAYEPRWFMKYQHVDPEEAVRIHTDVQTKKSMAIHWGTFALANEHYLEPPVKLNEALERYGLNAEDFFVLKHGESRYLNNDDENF
T4 sequence (O35433 whole entry): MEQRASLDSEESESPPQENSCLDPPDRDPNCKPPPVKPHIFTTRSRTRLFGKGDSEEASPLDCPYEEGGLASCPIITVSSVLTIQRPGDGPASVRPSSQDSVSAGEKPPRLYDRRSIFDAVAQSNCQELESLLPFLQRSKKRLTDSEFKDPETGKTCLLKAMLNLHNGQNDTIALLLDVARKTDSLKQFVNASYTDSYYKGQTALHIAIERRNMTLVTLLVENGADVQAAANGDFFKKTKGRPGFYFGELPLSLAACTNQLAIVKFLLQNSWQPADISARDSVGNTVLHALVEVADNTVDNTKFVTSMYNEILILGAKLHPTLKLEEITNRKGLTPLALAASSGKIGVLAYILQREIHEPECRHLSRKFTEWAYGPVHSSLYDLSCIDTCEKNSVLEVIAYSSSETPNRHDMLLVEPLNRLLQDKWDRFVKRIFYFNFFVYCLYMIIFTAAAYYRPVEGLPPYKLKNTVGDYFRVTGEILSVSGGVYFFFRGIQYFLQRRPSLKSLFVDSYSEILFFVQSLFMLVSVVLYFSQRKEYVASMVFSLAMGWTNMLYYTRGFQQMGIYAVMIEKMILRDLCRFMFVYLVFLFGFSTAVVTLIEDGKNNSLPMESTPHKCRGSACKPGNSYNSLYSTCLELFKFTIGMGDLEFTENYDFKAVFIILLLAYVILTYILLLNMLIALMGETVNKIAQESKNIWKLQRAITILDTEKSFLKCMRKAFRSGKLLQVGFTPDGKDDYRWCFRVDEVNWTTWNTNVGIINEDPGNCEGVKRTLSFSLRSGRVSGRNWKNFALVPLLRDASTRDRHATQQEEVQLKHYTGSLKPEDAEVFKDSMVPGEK
T5 sequence (P21554 whole entry): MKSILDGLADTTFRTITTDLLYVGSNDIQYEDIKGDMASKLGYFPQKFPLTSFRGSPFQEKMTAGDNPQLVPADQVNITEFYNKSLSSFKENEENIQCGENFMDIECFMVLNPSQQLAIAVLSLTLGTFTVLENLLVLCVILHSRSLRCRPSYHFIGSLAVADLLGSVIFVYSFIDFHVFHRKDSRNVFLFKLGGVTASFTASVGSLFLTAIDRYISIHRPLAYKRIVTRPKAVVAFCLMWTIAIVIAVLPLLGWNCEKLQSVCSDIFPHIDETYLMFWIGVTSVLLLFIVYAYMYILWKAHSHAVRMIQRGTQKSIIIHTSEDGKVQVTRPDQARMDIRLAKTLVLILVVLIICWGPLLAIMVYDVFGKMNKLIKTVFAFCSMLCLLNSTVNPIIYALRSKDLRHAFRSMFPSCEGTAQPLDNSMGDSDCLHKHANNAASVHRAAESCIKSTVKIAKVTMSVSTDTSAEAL

Question: For `CCCCC/C=C\C/C=C\C/C=C\C/C=C\CCCC(=O)NCCOCCOCCNC(=O)CCCC[C@@H]1SC[C@@H]2NC(=O)N[C@@H]21` [b-AEA, (+)-N-arachidonoyl-biotinyl-3,6-dioxaoctanediamine], which “AMT Vmax” value [1] is on record?
Answer: Its value is 116 ± 10 pmol/min per mg protein.

Question: And the Km [1]?
Answer: Its Km is 0.421 ± 0.088 µM.

Question: And the “AMT Vmax” value ([1]; listed as [^3H]b-AEA)?
Answer: Its value is 116 ±10 pmol/min per mg protein.

Question: What about the IC50 [2] of the same molecule?
Answer: The IC50 was greater than 10 µM.

Question: And the “effect on FAAH activity of HaCaT cells” value [3]?
Answer: Its value is “does not affect”.

Question: And the “effect on HaCaT cell differentiation (CE formation induced by TPA+calcium)” value [4]?
Answer: The value was “ineffective”.

Question: What about the IC50 [5] of the same molecule?
Answer: Its IC50 is greater than 10 µM.

Question: And the “uptake by HaCaT cells seen by immunofluorescence” value ([6]; 5 M per test, FIG. 3)?
Answer: The value was “cells quickly take up b-AEA”.

Question: What about the IC50 [7] of the same molecule?
Answer: The IC50 was greater than 10 µM.

Question: What about the IC50 [8] of the same molecule?
Answer: The IC50 was 0.5 ± 0.1 µM.

Question: And the “binding to CB1 receptors of HaCaT cells” value [9]?
Answer: The value was “did not bind”.

Question: And the “hydrolysis by FAAH (substrate or not)” value [10]?
Answer: Its value is “not a substrate for FAAH”.

Question: And the “effect on NAPE-PLD activity of HaCaT cells” value [11]?
Answer: Its value is “does not affect”.

Question: With `Cc1c(C(=O)NN2CCCCC2)nn(-c2ccc(Cl)cc2Cl)c1-c1ccc(Cl)cc1` [SR141716, N-Piperidino-5-(4-chlorophenyl)-1-(2,4-dichloro-phenyl)-4-methyl-3-pyrazole carboxamide] as the molecule, how does the “reversal of the AEA effect on CE formation” value ([12]; 0.1 μM) read?
Answer: Its value is “fully reversed”.

Question: Which “effect on b-AEA immunostaining (uptake) of HaCaT cells” value ([6]; 5 μM, added 5 min before probe) does the source give for `CCCCCCCC/C=C\CCCCCCCC(=O)N[C@H](CO)Cc1ccc(O)cc1` [OMDM-1] here?
Answer: Its value is “remarkable decrease of immunostaining”.

Question: For `CCCCC/C=C\C/C=C\C/C=C\C/C=C\CCCC(=O)NCCO` [AEA, N-arachidonoylethanolamine], which “AMT Vmax” value [1] is on record?
Answer: Its value is 124 ± 8 pmol/min per mg protein.

Question: What about the Km [1] of the same molecule?
Answer: Its Km is 0.353 ± 0.06 µM.

Question: And the “effect on HaCaT cell differentiation (CE formation induced by TPA+calcium)” value [4]?
Answer: Its value is “blocked”.

Question: And the “effect on CE formation in HaCaT cells” value ([12]; maximum effect at 1 μM)?
Answer: Its value is “dose-dependently reduces CE formation”.

Question: And the “hydrolysis by FAAH (substrate or not)” value [10]?
Answer: Its value is “hydrolyzed in a concentration-dependent manner”.

Question: What about the “FAAH Vmax” value ([10]; compound as substrate) of the same molecule?
Answer: Its value is 385 ± 25 pmol/min per mg protein.

Question: With `NC(=O)c1cccc(-c2cccc(OC(=O)NC3CCCCC3)c2)c1` [URB597] as the molecule, how does the “effect on uptake and intracellular trafficking of b-AEA in HaCaT cells” value ([6]; 1 μM, added 5 min before probe) read?
Answer: Its value is “did not affect”.
